Laboratory results reported in patent US8859549B2, “Potassium channel modulators” (AbbVie, Inc., priority 2011, dated 2014).

Biological target: T1, KCNQ 2/3 channels (Homo sapiens, UniProt O43525+O43526)
T1 construct: expressed in transfected cells; host or cells: HEK293
Assay: KCNQ 2/3 channel activation, thallium flux FLIPR assay (BTC-AM dye)
Type: cell-based
Conditions: for Emax: HEK293, maximum response relative to the response of 10 μM retigabine (set at 100%), read-out: % MAX; for EC50: HEK293 cells stably expressing human KCNQ2 and KCNQ3 subunits, thallium-induced fluorescence, 4 min compound incubation
Summary of the method: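 HEK293 cells stably expressing human KCNQ2/KCNQ3 were loaded with BTC-AM (3 μg/mL, 2 h, RT) and preincubated with compound for 4 min in pH 7.3 gluconate buffer containing 0.1 mM ouabain. Flux was triggered by 6 mM TlNO3/10 mM K2SO4 and read for 3 min; EC50 came from summed responses over basal, with maximum relative to 10 μM retigabine (100%).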

Emax (HEK293 KCNQ2/KCNQ3 cells) [%]	EC50 [nM]	% MAX (maximum response relative to the response of 10 μM retigabine (set at 100%), HEK293 KCNQ2/KCNQ3 cells) [%]	Compound
80	5510		O=C(Cc1cccc(Cl)c1)Nn1nc(N2CCOCC2)c2ccccc2c1=O [Example 152, 2-(3-chlorophenyl)-N-[4-(morpholin-4-yl)-1-oxophthalazin-2(1H)-yl]acetamide]
180	23.2		O=C(CC1CC2CCC1C2)Nn1nc(Sc2ccc(Br)cc2)c2ccccc2c1=O (racemic) [Example 200, (±)-2-[(exo)-bicyclo[2.2.1]hept-2-yl]-N-{4-[(4-bromophenyl)sulfanyl]-1-oxophthalazin-2(1H)-yl}acetamide]
96.9	432		O=C(Cc1ccc(Cl)cc1)Nn1nc(Sc2ccc(Br)cc2)c2ccccc2c1=O [Example 195, N-{4-[(4-bromophenyl)sulfanyl]-1-oxophthalazin-2(1H)-yl}-2-(4-chlorophenyl)acetamide]
	1610	57.6	(1R,2S,5R)-5-methyl-2-(propan-2-yl)cyclohexyl[(3-{[(4-chlorophenyl)acetyl]amino}-4-oxo-3,4-dihydrophthalazin-1-yl)methyl]carbamate [Example 180]
131	1590		CC(C)(CC(=O)Nn1nc(N2CCOCC2)c2ccccc2c1=O)c1ccccc1 [Example 33, 3-methyl-N-[4-(morpholin-4-yl)-1-oxophthalazin-2(1H)-yl]-3-phenylbutanamide]
80.9	77.4		O=C(Cc1cccc(Cl)c1)Nn1nc(S(=O)(=O)c2ccccc2)c2ccccc2c1=O [Example 209, 2-(3-chlorophenyl)-N-[1-oxo-4-(phenylsulfonyl)phthalazin-2(1H)-yl]acetamide]
15.7			O=C(Cc1ccccc1)NCc1nn(NC(=O)Cc2ccc(Cl)cc2)c(=O)c2ccccc12 [Example 86, 2-(4-chlorophenyl)-N-[1-oxo-4-{[(phenylacetyl)amino]methyl}phthalazin-2(1H)-yl]acetamide]
137	306		COc1ccc(-c2nn(NC(=O)CC3CC4CCC3C4)c(=O)c3ccccc23)cn1 (racemic) [Example 26, (±)-2-[(exo)-bicyclo[2.2.1]hept-2-yl]-N-[4-(6-methoxypyridin-3-yl)-1-oxophthalazin-2(1H)-yl]acetamide]
107	383		O=C(Cc1ccc(Cl)cc1)Nn1nc(-c2ccnc(Cl)c2)c2ccccc2c1=O [Example 49, 2-(4-chlorophenyl)-N-[4-(2-chloropyridin-4-yl)-1-oxophthalazin-2(1H)-yl]acetamide]
134	87.5		O=C(Cc1cc(F)cc(F)c1)Nn1nc(N2CCCCC2)c2ccccc2c1=O [Example 22, 2-(3,5-difluorophenyl)-N-[1-oxo-4-(piperidin-1-yl)phthalazin-2(1H)-yl]acetamide]
103	6890		Cc1cccc(CC(=O)Nn2nc(N3CCOCC3)c3ccccc3c2=O)c1 [Example 140, 2-(3-methylphenyl)-N-[4-(morpholin-4-yl)-1-oxophthalazin-2(1H)-yl]acetamide]
40.8			CC(C)(C)NC(=O)NCc1nn(NC(=O)Cc2ccc(Cl)cc2)c(=O)c2ccccc12 [Example 84, N-[4-{[(tert-butylcarbamoyl)amino]methyl}-1-oxophthalazin-2(1H)-yl]-2-(4-chlorophenyl)acetamide]
133	389		CC(C)(CC(=O)Nn1nc(-c2ccnc(Cl)c2)c2ccccc2c1=O)c1ccccc1 [Example 48, N-[4-(2-chloropyridin-4-yl)-1-oxophthalazin-2(1H)-yl]-3-methyl-3-phenylbutanamide]
67.1	1840		O=C(Cc1ccc(Cl)cc1)Nn1nc(S(=O)(=O)Cc2ccccc2)c2ccccc2c1=O [Example 216, N-[4-(benzylsulfonyl)-1-oxophthalazin-2(1H)-yl]-2-(4-chlorophenyl)acetamide]
72.5	8050		CC(C)(C)OC(=O)NCc1nn(NC(=O)CC2CCC(F)(F)CC2)c(=O)c2ccccc12 [Example 124, tert-butyl[(3-{[(4,4-difluorocyclohexyl)acetyl]amino}-4-oxo-3,4-dihydrophthalazin-1-yl)methyl]carbamate]
146	381		N#Cc1cc(-c2nn(NC(=O)CC3CC4CCC3C4)c(=O)c3ccccc23)ccn1 (racemic) [Example 45, (±)-2-[(exo)-bicyclo[2.2.1]hept-2-yl]-N-[4-(2-cyanopyridin-4-yl)-1-oxophthalazin-2(1H)-yl]acetamide]
164	24		O=C(CC1CC2CCC1C2)Nn1nc(S(=O)(=O)c2ccc(Br)cc2)c2ccccc2c1=O (racemic) [Example 204, (±)-2-[(exo)-bicyclo[2.2.1]hept-2-yl]-N-{4-[(4-bromophenyl)sulfonyl]-1-oxophthalazin-2(1H)-yl}acetamide]
103	116		Cc1ccc(S(=O)(=O)c2nn(NC(=O)Cc3ccc(Cl)cc3)c(=O)c3ccccc23)cc1 [Example 192, 2-(4-chlorophenyl)-N-{4-[(4-methylphenyl)sulfonyl]-1-oxophthalazin-2(1H)-yl}acetamide]

Emax (HEK293 KCNQ2/KCNQ3 cells) [%]	EC50 [nM]	% MAX (maximum response relative to the response of 10 μM retigabine (set at 100%), HEK293 KCNQ2/KCNQ3 cells) [%]	Compound
142	331		O=C(CC1CC2CCC1C2)Nn1nc(N2CCOCC2)c2ccccc2c1=O (racemic) [Example 3, (±)-2-[(exo)-bicyclo[2.2.1]hept-2-yl]-N-[4-(morpholin-4-yl)-1-oxophthalazin-2(1H)-yl]acetamide]
105	297		O=C(Cc1ccc(Cl)cc1)Nn1nc(-c2cccs2)c2ccccc2c1=O [Example 11, 2-(4-chlorophenyl)-N-[1-oxo-4-(thiophen-2-yl)phthalazin-2(1H)-yl]acetamide]
136	67.4		O=C(CC1CC2CCC1C2)Nn1nc(-c2cccs2)c2ccccc2c1=O (racemic) [Example 12, (±)-2-[(exo)-bicyclo[2.2.1]hept-2-yl]-N-[1-oxo-4-(thiophen-2-yl)phthalazin-2(1H)-yl]acetamide]
106	64.7		O=C(Cc1cc(F)cc(F)c1)Nn1nc(S(=O)(=O)c2ccc(Br)cc2)c2ccccc2c1=O [Example 202, N-{4-[(4-bromophenyl)sulfonyl]-1-oxophthalazin-2(1H)-yl}-2-(3,5-difluorophenyl)acetamide]
201	76.7		CC(C)(C)OC(=O)c1nn(NC(=O)CC2CC3CCC2C3)c(=O)c2ccccc12 (racemic) [Example 94, (±)-tert-butyl 3-{[(exo)-bicyclo[2.2.1]hept-2-ylacetyl]amino}-4-oxo-3,4-dihydrophthalazine-1-carboxylate]
87.9	79.2		O=C(Cc1ccc(F)cc1)Nn1nc(S(=O)(=O)c2ccccc2)c2ccccc2c1=O [Example 193, 2-(4-fluorophenyl)-N-[1-oxo-4-(phenylsulfonyl)phthalazin-2(1H)-yl]acetamide]
117	2700		O=C(Cc1ccc(Cl)cc1)Nn1nc(N2CCOCC2)c2ccccc2c1=O [Example 2, 2-(4-chlorophenyl)-N-[4-(morpholin-4-yl)-1-oxophthalazin-2(1H)-yl]acetamide]
92.3	738		CC(C)(C)S(=O)(=O)c1nn(NC(=O)Cc2ccc(Cl)cc2)c(=O)c2ccccc12 [Example 201, N-[4-(tert-butylsulfonyl)-1-oxophthalazin-2(1H)-yl]-2-(4-chlorophenyl)acetamide]
33.3			O=C(Cc1cccc(C(F)(F)F)c1)Nn1nc(S(=O)(=O)c2ccccc2)c2ccccc2c1=O [Example 208, N-[1-oxo-4-(phenylsulfonyl)phthalazin-2(1H)-yl]-2-[3-(trifluoromethyl)phenyl]acetamide]
33.9			COc1cc(CC(=O)Nn2nc(N3CCOCC3)c3ccccc3c2=O)cc(OC)c1 [Example 173, 2-(3,5-dimethoxyphenyl)-N-[4-(morpholin-4-yl)-1-oxophthalazin-2(1H)-yl]acetamide]
173	2700		O=C(CC1CC2CCC1C2)Nn1nc(Cc2ccncc2)c2ccccc2c1=O (racemic) [Example 97, (±)-2-[(exo)-bicyclo[2.2.1]hept-2-yl]-N-[1-oxo-4-(pyridin-4-ylmethyl)phthalazin-2(1H)-yl]acetamide]
87.4	1520		O=C(Cc1cccc(OC(F)(F)F)c1)Nn1nc(N2CCOCC2)c2ccccc2c1=O [Example 162, N-[4-(morpholin-4-yl)-1-oxophthalazin-2(1H)-yl]-2-[3-(trifluoromethoxy)phenyl]acetamide]
84.9			CN(C)C(=O)c1nn(NC(=O)CC2CC3CCC2C3)c(=O)c2ccccc12 (racemic) [Example 56, (±)-3-{[(exo)-bicyclo[2.2.1]hept-2-ylacetyl]amino}-N,N-dimethyl-4-oxo-3,4-dihydrophthalazine-1-carboxamide]
19.6			O=C(Cc1ccc(Cl)cc1)Nn1nc(-c2cccnc2)c2ccccc2c1=O [Example 9, 2-(4-chlorophenyl)-N-[1-oxo-4-(pyridin-3-yl)phthalazin-2(1H)-yl]acetamide]
5.33			CS(=O)(=O)c1ccc(CC(=O)Nn2nc(N3CCOCC3)c3ccccc3c2=O)cc1 [Example 130, 2-[4-(methylsulfonyl)phenyl]-N-[4-(morpholin-4-yl)-1-oxophthalazin-2(1H)-yl]acetamide]
22			O=C(Cc1ccc(OCc2ccccc2)cc1)Nn1nc(N2CCOCC2)c2ccccc2c1=O [Example 164, 2-[4-(benzyloxy)phenyl]-N-[4-(morpholin-4-yl)-1-oxophthalazin-2(1H)-yl]acetamide]
23.6			COc1cccc(CC(=O)Nn2nc(N3CCOCC3)c3ccccc3c2=O)c1OC [Example 169, 2-(2,3-dimethoxyphenyl)-N-[4-(morpholin-4-yl)-1-oxophthalazin-2(1H)-yl]acetamide]
